“Also recorded” adds a separate entry of the source.
Columns and labels:
LNCaP-EnzaR cells = assay: Cell viability of LNCaP-EnzaR cells treated with R1881, enzalutamide, Dex with or without JQ1; assay type: cell-based, human; conditions: 3 days
Experimental: FIG. 3. […] LNCaP-EnzR cells were treated for three days of R1881 and enzalutamide (RE), concurrently with vehicle, Dex (D) or D+JQ1. Error bars=standard error of mean. The bars, from left to right, correspond to RE, RED, and RED-JQ 1.
BET-inhibition decreases Enza-R survival in vitro despite dexamethasone. It has been reported that the BET inhibitor JQ1 (100-500 nM) can decrease Enza-R cell survival, potentially through inhibition of ligand independent AR splice variants.

[1] = system: GR (NR3C1) target gene expression; assay: Dex-mediated GR target gene expression (KLK3, SGK1, FKBP5) with BET inhibition in LNCaP-EnzR cells; assay type: cell-based, human; conditions: three days R1881 and enzalutamide, then Dex or Dex+JQ1, relative to RE, p<0.05
Experimental: FIG. 2. Dex-mediated GR (NR3C1) target gene expression decreased with BETinhibition. LNCaP-EnzR cells were treated for three days of R1881 and enzalutamide (RE), after which cells stimulated with Dex (D) or Dex+JQ1. All conditions relative to RE. Changes all significant p<0.05 with no change in GR expression across conditions. Each series of bars from left to right corresponds to data from RE, RED, and RED-JQl.
The inventors have also verified that the principal BET-BRD proteins inhibited by a BET inhibitor (ABT-075), BRD4 and BRD3 are expressed within the Enza-R CRPC cell lines. […] It was next sought to explore whether for specific, known GR-regulated in PC cells genes (KLK3, SGK1, FKBPS) the BET inhibitor tool compound JQ1 was able to decrease GR mediated gene expression.

Enza-R cells = conditions: JQ1 100-500 nM; reported; cited from earlier work
GR binding sites = assay: GR ChIP-seq in LAPC4 cells after addition of dexamethasone; assay type: cell-based, human
Excerpt: The inventors recently discovered that within PC cells, activated GR can compensate transcriptionally for a large set of genes. […] In a companion experiment using chromatin immunoprecipitation followed by deep sequeicing (ChIP-seq) in LAPC4 cells, the addition of dexamethasone to activate the GR leads to ˜700 new unique GR binding sites, approximately 70 of these new sites are within 5 kilobase (kb) of the transctiption start site of known genes. This argues that the majority of GR chromatin binding and subsequent gene regulation is through regulation at more distant enhancer sites rather then through direct promoter site binding. As bromodomain proteins such as BRD4 cooperate with known transcription factors, including the GR, at such enhancers to enable gene regulation, the inventors sought to establish whether BRD4 and GR cooperate to regulate pro-survival genes in Enza-R CRPC.

Row | Structure (SMILES) | viable cell numbers (Dex-mediated cell viability) (LNCaP-EnzaR cells; JQ1 500 nM with dexamethasone 100 nM, R1881 1 nM, enzalutamide 10 μM) | GR mediated gene expression (KLK3, SGK1, FKBPS) [1] | Enza-R cell survival (Enza-R cells) | viable cell numbers (LNCaP-EnzaR cells; dexamethasone 100 nM with R1881 1 nM and enzalutamide 10 μM) | new unique GR binding sites (GR binding sites)
1 | Cc1sc2c(c1C)C(c1ccc(Cl)cc1)=N[C@@H](CC(=O)OC(C)(C)C)c1nnc(C)n1-2 [JQ1] | significantly decreased | significantly countered; also recorded: decreased | can decrease |  | 
2 | C[C@@H]1C[C@H]2[C@@H]3CCC4=CC(=O)C=C[C@]4(C)[C@@]3(F)[C@@H](O)C[C@]2(C)[C@@]1(O)C(=O)CO [Dex, dexamethasone] |  |  |  | increases | ~700

Source: patent US20190134004A1, “METHODS AND COMPOSITIONS FOR TREATING BREAST AND PROSTATE CANCER” (The University of Chicago, priority 2016, published 2019)
